Patent publication US12324893B2, “Triptan microporation delivery system” (PassPort Technologies, Inc., priority 2019, dated 2025)

What was measured:
[1] = Administration route study in hairless rats (Example 4); format: in vivo; conditions: for AUC / Cmax / Tmax: rat, blood
Protocol: (§1) Hairless rats were used as experimental animals. After oral administration of a drug solution (2.0 ml) containing 2.0 mg of zolmitriptan, blood was collected at a desired time, each medicinal component was extracted according to a conventional method, then blood concentration was quantified by high performance liquid chromatography (LC-MS/MS).
as §1, with “intravenous” for “oral”, “(10 μl)” for “(2.0 ml)”, “2” for “2.0”
as §1, with “intravenous” for “oral”, “(200 μl)” for “(2.0 ml)”, “2” for “2.0”
Hairless rats were used as experimental animals. A drug patch was affixed on the flank side of skin of experimental animals that had undergone microporation treatment under the desired conditions. In this study, microporation condition of transdermal microporation was 400 pores/cm^2, 5.2 mJ/filament. The administration side was 1 cm^2. During the period where the patch was affixed, and after it had adhered, blood was collected at a desired time, each medicinal component was extracted according to a conventional method, then blood concentration was quantified by high performance liquid chromatography (LC-MS/MS). A Patch formulation of this study was 2 mg Zolmitriptan, sucrose 0.5 mg, AA 4 mg, 1 cm^2 non-woven matrix (EH-1212, WHC=4 mg/cm^2),
The given bioavailability of Table 5 is absolute bioavailability against IV injection.

[2] = as above; format: in vivo; conditions: Group 2: 2 mg zolmitriptan
[3] = Administration route study in guinea pigs (Example 5); format: in vivo; conditions: for AUC / Cmax / Tmax: guinea pig, blood
Protocol: This example describes an administration route study in guinea pigs using the same method mentioned in Example 4. In this study, base refers to Zomitriptan.
In this study, five groups of guinea pigs were tested under the following conditions: (1) Group 1 (10 mg base/4 ml, oral route); (2) Group 2 (5 mg base/2 ml, oral route); (3) Group 3 (2 mg base/4 mL, oral route); (4) Group 4 (2.0 mg base/cm^2, transdermal microporation); and (5) Group 5 (2 mg/200 μL, SubQ). The given bioavailability of Tables 6 is relative bioavailability against subcutaneous injection.

skin = test: Skin irritation at different poration conditions (Examples 7-9); format: in vivo, guinea pigs
Protocol: A skin irritation examination was performed following the patch removal. The skin irritation examination scale was an assessment of the skin directly under the matrix.
(§2) This example describes various effects of filament density. To investigate the effect of filament density on PK profile and side effects (pain by poration and skin irritation), these studies were conducted. The filament density mainly affects the area to be utilized for the transfer of body fluid and ingredients in between skin and patch. The range of filament density was 100 filaments/cm^2 to 400 filaments/cm^2, and the poration energy was from 3 to 4 mJ/filament.
(§3) This example describes various effects to heating energy. The poration energy is related to the pore shape such as depth and width.
(§4) This example describes the selection of a desirable filament array size. Assuming the higher dose than 2 mg dose with the conditions 400 filaments/cm^2 filament density and 4 or 5 mJ/filament energy, filament array size may need to be made bigger. The range of dose was 0.5 to 4 mg, and the range of filament array size was 1.0 to 2.0 cm^2.

[4] = Pain by poration (Examples 7-9); format: in vivo, guinea pigs
Protocol: as §2, §3, §4

[5] = Group 1: 2 mg zolmitriptan, oral administration
[6] = Group 3: 2 mg zolmitriptan, intravenous injection
[7] = topical or ocular, Group 4: 2 mg zolmitriptan, transdermal microporation (400 pores/cm^2, 5.2 mJ/filament, 1 cm^2)
[8] = rat, blood, inhaled or intranasal
[9] = Group 1: 10 mg base/4 ml, oral route
[10] = Group 2: 5 mg base/2 ml, oral route
[11] = Group 3: 2 mg base/4 mL, oral route
[12] = topical or ocular, Group 4: 2.0 mg base/cm^2, transdermal microporation
[13] = Table 13 # 1: 100 filaments/cm^2, 3 mJ/filament, 1.0 cm^2, 2.00 mg patch
[14] = Table 13 # 2: 200 filaments/cm^2, 3 mJ/filament, 1.0 cm^2, 2.00 mg patch
[15] = Table 13 # 3: 400 filaments/cm^2, 3 mJ/filament, 1.0 cm^2, 2.00 mg patch
[16] = Table 13 # 4: 100 filaments/cm^2, 4 mJ/filament, 1.0 cm^2, 2.00 mg patch
[17] = Table 13 # 5: 200 filaments/cm^2, 4 mJ/filament, 1.0 cm^2, 2.00 mg patch
[18] = Table 13 # 6: 400 filaments/cm^2, 4 mJ/filament, 1.0 cm^2, 2.00 mg patch
[19] = Table 15 # 1: 400 filaments/cm^2, 2 mJ/filament, 1.0 cm^2, 2.00 mg patch
[20] = Table 15 # 2: 400 filaments/cm^2, 3 mJ/filament, 1.0 cm^2, 2.00 mg patch
[21] = Table 15 # 3: 400 filaments/cm^2, 4 mJ/filament, 1.0 cm^2, 2.00 mg patch
[22] = Table 15 # 4: 400 filaments/cm^2, 5 mJ/filament, 1.0 cm^2, 2.00 mg patch
[23] = Table 17 #1: dose 0.50 mg, 4 mJ/filament, 1.0 cm^2, 400 filaments/cm^2
[24] = Table 17 # 2: dose 2.00 mg, 4 mJ/filament, 1.0 cm^2, 400 filaments/cm^2
[25] = Table 17 # 3: dose 3.00 mg, 4 mJ/filament, 1.0 cm^2, 400 filaments/cm^2
[26] = Table 17 # 4: dose 4.00 mg, 4 mJ/filament, 1.5 cm^2, 400 filaments/cm^2
[27] = Table 17 # 5: dose 4.00 mg, 4 mJ/filament, 2.0 cm^2, 400 filaments/cm^2
[28] = Table 17 # 6: dose 4.00 mg, 5 mJ/filament, 1.5 cm^2, 400 filaments/cm^2

## CN(C)CCc1c[nH]c2ccc(C[C@H]3COC(=O)N3)cc12 [Zolmitriptan]
[1]; Group 1: 2 mg zolmitriptan, oral administration, absolute bioavailability against IV injection
  BA: 11.4%
[1]; Group 3: 2 mg zolmitriptan, intravenous injection, absolute bioavailability against IV injection (reference)
  BA: 100.0%
[1]; Group 4: 2 mg zolmitriptan, transdermal microporation (400 pores/cm^2, 5.2 mJ/filament, 1 cm^2), absolute bioavailability against IV injection
  BA: 71.4%
[1]; [5]
  AUC: 227 ng·h/mL
  Cmax: 74 ng/mL
  Tmax: 270 min
[1]; [6]
  AUC: 2000 ng·h/mL
  Cmax: 5020 ng/mL
  Tmax: 3 min
[1]; [7]
  Cmax: 577 ng/mL
  Tmax: 37.8 min
[1]; topical or ocular, Group 4: 2 mg zolmitriptan, transdermal microporation (400 pores/cm^2, 5.2 mJ/filament, 1 cm^2; patch with sucrose 0.5 mg, AA 4 mg)
  AUC: 1430 ng·h/mL
[2]; intranasal administration, absolute bioavailability against IV injection
  BA: 12.0%
[2]; [8]
  AUC: 239 ng·h/mL
  Cmax: 127 ng/mL
  Tmax: 135 min
[3]; Group 1: 10 mg base/4 ml, oral route, relative bioavailability against subcutaneous injection
  BA: 16.2%
[3]; Group 2: 5 mg base/2 ml, oral route, relative bioavailability against subcutaneous injection
  BA: 8.3%
[3]; Group 3: 2 mg base/4 mL, oral route, relative bioavailability against subcutaneous injection
  BA: 4.5%
[3]; Group 4: 2.0 mg base/cm^2, transdermal microporation, relative bioavailability against subcutaneous injection
  BA: 84.2%
[3]; Group 5: 2 mg/200 μL, SubQ, relative bioavailability against subcutaneous injection (reference)
  BA: 100.0%
[3]; [9]
  AUC: 1390 ng·h/mL
  Cmax: 910 ng/mL
  Tmax: 26.4 min
[3]; [10]
  AUC: 353 ng·h/mL
  Cmax: 259 ng/mL
  Tmax: 33.6 min
[3]; [11]
  AUC: 77 ng·h/mL
  Cmax: 25 ng/mL
  Tmax: 19.8 min
[3]; sc, Group 5: 2 mg/200 μL, SubQ
  AUC: 1710 ng·h/mL
  Cmax: 3880 ng/mL
  Tmax: 5.4 min
[3]; [12]
  Cmax: 864 ng/mL
  Tmax: 30 min
[3]; topical or ocular, Group 4: 2.0 mg base/cm^2, transdermal microporation (400 pores/cm^2, 5.2 mJ/filament)
  AUC: 1440 ng·h/mL
skin; [13]
  Skin irritation relief ± SD (Days to recover to score 1): 0.0 ± 0.0 days
  Skin irritation ± SD (Just after patch removal): 0.8 ± 0.3
skin; [14]
  Skin irritation relief ± SD (Days to recover to score 1): 1.8 ± 0.8 days
  Skin irritation ± SD (Just after patch removal): 2.2 ± 0.4
skin; [15]
  Skin irritation relief ± SD (Days to recover to score 1): 2.8 ± 1.3 days
  Skin irritation ± SD (Just after patch removal): 1.9 ± 0.3
skin; [16]
  Skin irritation relief ± SD (Days to recover to score 1): 1.8 ± 0.5 days
  Skin irritation ± SD (Just after patch removal): 1.6 ± 0.3
skin; [17]
  Skin irritation relief ± SD (Days to recover to score 1): 3.0 ± 1.9 days
  Skin irritation ± SD (Just after patch removal): 2.1 ± 0.7
skin; [18]
  Skin irritation relief ± SD (Days to recover to score 1): 3.2 ± 0.8 days
  Skin irritation ± SD (Just after patch removal): 2.1 ± 0.3
skin; [19]
  Skin irritation relief ± SD (Days to recover to score 1): 2.3 ± 1.2 days
  Skin irritation ± SD (Just after patch removal): 1.8 ± 0.3
skin; [20]
  Skin irritation relief ± SD (Days to recover to score 1): 2.8 ± 1.3 days
  Skin irritation ± SD (Just after patch removal): 1.9 ± 0.3
skin; [21]
  Skin irritation relief ± SD (Days to recover to score 1): 3.2 ± 0.8 days
  Skin irritation ± SD (Just after patch removal): 2.1 ± 0.3
skin; [22]
  Skin irritation relief ± SD (Days to recover to score 1): 2.6 ± 1.7 days
  Skin irritation ± SD (Just after patch removal): 2.3 ± 0.3
skin; [23]
  Skin irritation relief ± SD (Days to recover to score 1): 2.5 ± 1.0 days
  Skin irritation ± SD (Just after patch removal): 1.6 ± 0.5
skin; [24]
  Skin irritation relief ± SD (Days to recover to score 1): 3.2 ± 0.8 days
  Skin irritation ± SD (Just after patch removal): 2.1 ± 0.3
skin; [25]
  Skin irritation relief ± SD (Days to recover to score 1): 3.0 ± 0.5 days
  Skin irritation ± SD (Just after patch removal): 2.0 ± 0.0
skin; [26]
  Skin irritation ± SD (Just after patch removal): 2.1 ± 0.3
skin; [27]
  Skin irritation relief ± SD (Days to recover to score 1): 4.3 ± 0.9 days
  Skin irritation ± SD (Just after patch removal): 2.0 ± 0.0
skin; [28]
  Skin irritation relief ± SD (Days to recover to score 1): 5.5 ± 1.9 days
  Skin irritation ± SD (Just after patch removal): 1.9 ± 0.3
[4]; Table 13 # 1: 100 filaments/cm^2, 3 mJ/filament, area 1.0 cm^2
  Pain by poration ± SD: 0.0 ± 0.0
[4]; Table 13 # 2: 200 filaments/cm^2, 3 mJ/filament, area 1.0 cm^2
  Pain by poration ± SD: 0.6 ± 0.5
[4]; Table 13 # 3: 400 filaments/cm^2, 3 mJ/filament, area 1.0 cm^2
  Pain by poration ± SD: 0.5 ± 0.6
[4]; Table 13 # 4: 100 filaments/cm^2, 4 mJ/filament, area 1.0 cm^2
  Pain by poration ± SD: 0.8 ± 1.0
[4]; Table 13 # 5: 200 filaments/cm^2, 4 mJ/filament, area 1.0 cm^2
  Pain by poration ± SD: 1.8 ± 0.4
[4]; Table 13 # 6: 400 filaments/cm^2, 4 mJ/filament, area 1.0 cm^2
  Pain by poration ± SD: 1.8 ± 0.5
[4]; Table 15 # 1: 400 filaments/cm^2, 2 mJ/filament, area 1.0 cm^2
  Pain by poration ± SD: 0.3 ± 0.5
[4]; Table 15 # 2: 400 filaments/cm^2, 3 mJ/filament, area 1.0 cm^2
  Pain by poration ± SD: 0.5 ± 0.6
[4]; Table 15 # 3: 400 filaments/cm^2, 4 mJ/filament, area 1.0 cm^2
  Pain by poration ± SD: 1.8 ± 0.5
[4]; Table 15 # 4: 400 filaments/cm^2, 5 mJ/filament, area 1.0 cm^2
  Pain by poration ± SD: 0.8 ± 1.0
[4]; [23]
  Pain by poration ± SD: 0.5 ± 0.6
[4]; [24]
  Pain by poration ± SD: 1.8 ± 0.5
[4]; [25]
  Pain by poration ± SD: 0.3 ± 0.5
[4]; [26]
  Pain by poration ± SD: 2.3 ± 0.5
[4]; [27]
  Pain by poration ± SD: 2.8 ± 0.5
[4]; [28]
  Pain by poration ± SD: 2.8 ± 0.5
